# Patent publication US20220047548A1, “SYNERGISTIC COMPOSITIONS COMPRISING (R)-2-(2-OXOPYRROLIDIN-1-YL)BUTANAMIDE AND (S)-2-(2-e OXOPYRROLEDIN-1-YL)BUTANAMEDE IN A NON-RACEMIC RATIO” (Metys Pharmaceuticals AG, priority 2018, published 2022)
# Marks after values point to notes of the source that are not given here.
# What was measured:
# [1] = tested on: electroshock-induced amnesia; details: sub-cutaneous injection; rat; cited from earlier work
# [2] = tested on: PTZ-induced kindling in mice; test: PTZ-induced kindling test in mice (tonic and clonic convulsions kindled by once-daily pentylenetetrazole); format: in vivo, mice (adult male CD1); details: for antiepileptic effect in comparison experiment (in words): Tab. 2 comparison
# Protocol: Adult male CD1 mice (Envigo, Italy 20-25 g weight at arrival), were used. The cages were brought into the experimental room the day before the experiment, for acclimatization purposes. Each treatment group consisted of 15 mice. Mice were fed a standard laboratory diet. Food and water were freely available. Room temperature and relative humidity were constantly kept at 22±2° C. and 55±15%, respectively, and a 12-hour light and 12-hour darkness cycles maintained.
# Levetiracetam (batch P102-14050 supplied by Astatech), etiracetam (supplied by Shaanxi Swiden Biotech Co., Ltd. Catalog number E932970), or mixtures of 1 part levetiracetam and 1 part etiracetam (1-to-3 R-to-S-etiracetam), or of 1 part levetiracetam and 0.5 part etiracetam (1-to-5 R-to-S-etiracetam), were dissolved in 1% carboxymethylcellulose (CMC) solution at a formulation strength of 55 mg/mL and orally administered once per day. Compounds were administered every day, from day 1 to day 11, 60 min before PTZ (55 mg/kg i.p.). PTZ was dissolved in saline; following i.p. injection, seizures developed in vehicle-treated mice within about 20 minutes.
# The test was performed according to Gower et al. (Eur. J. Pharmacol. 222, 1992, 193-203). Separate groups of male mice were administered orally once daily for 11 consecutive days with levetiracetam (10, 30, or 60 mg/kg p.o.); etiracetam (30 mg/kg p.o.); or 1-to-3 R-to-S-etiracetam (30 mg/kg p.o.); or 1-to-5 R-to-S-etiracetam, (30 mg/kg p.o.); or oral vehicle, 60 min prior to administration of PTZ (pentylenetetrazole, 55.0 mg/kg i.p.). Immediately after the PTZ injection, the mice were placed in individual cages and observed for tonic and clonic seizures.
# A chi-square test was used to verify significance between two means of behavioral results. Data were analyzed by the Social Science Statistics Program. P values ≤0.05 were considered significant (link https://www.socscistatistics.com/tests/chisquare/default2.aspx).
# [3] = Table 2 comparison, 30 mg/kg p.o. once daily 60 min before PTZ 55 mg/kg i.p., Day 1
# [4] = Table 2 comparison, 30 mg/kg p.o. once daily 60 min before PTZ 55 mg/kg i.p., Day 2
# [5] = Table 2 comparison, 30 mg/kg p.o. once daily 60 min before PTZ 55 mg/kg i.p., Day 3
# [6] = Table 2 comparison, 30 mg/kg p.o. once daily 60 min before PTZ 55 mg/kg i.p., Day 4
# [7] = Table 2 comparison, 30 mg/kg p.o. once daily 60 min before PTZ 55 mg/kg i.p., Day 5
# [8] = Table 2 comparison, 30 mg/kg p.o. once daily 60 min before PTZ 55 mg/kg i.p., Day 6
# [9] = Table 2 comparison, 30 mg/kg p.o. once daily 60 min before PTZ 55 mg/kg i.p., Day 7
# [10] = Table 2 comparison, 30 mg/kg p.o. once daily 60 min before PTZ 55 mg/kg i.p., Day 8
# [11] = Table 2 comparison, 30 mg/kg p.o. once daily 60 min before PTZ 55 mg/kg i.p., Day 9
# [12] = Table 2 comparison, 30 mg/kg p.o. once daily 60 min before PTZ 55 mg/kg i.p., Day 10
# [13] = Table 2 comparison, 30 mg/kg p.o. once daily 60 min before PTZ 55 mg/kg i.p., Day 11
compound,measurement,setting,value
"CC[C@H](C(N)=O)N1CCCC1=O [R-etiracetam, (R)-2-(2-oxopyrrolidin-1-yl)butanamide]",potency relative to racemic etiracetam,[1],10 fold
"CCC(C(N)=O)N1CCCC1=O (racemic) [etiracetam, 2-(2-oxopyrrolidin-1-yl)butanamide]",antiepileptic effect in comparison experiment (in words),[2]; 30 mg/kg p.o.,ineffective
same,percentage of mice per group with clonic convulsions,[2]; [3],0%
same,percentage of mice per group with clonic convulsions,[2]; [4],6.6%
same,percentage of mice per group with clonic convulsions,[2]; [5],13.3%
same,percentage of mice per group with clonic convulsions,[2]; [6],26.6%
same,percentage of mice per group with clonic convulsions,[2]; [7],26.6%
same,percentage of mice per group with clonic convulsions,[2]; [8],46.6%
same,percentage of mice per group with clonic convulsions,[2]; [9],53.3%
same,percentage of mice per group with clonic convulsions,[2]; [10],66.6%
same,percentage of mice per group with clonic convulsions,[2]; [11],86.6%
same,percentage of mice per group with clonic convulsions,[2]; [12],93.3%
same,percentage of mice per group with clonic convulsions,[2]; [13],100%
"CC[C@@H](C(N)=O)N1CCCC1=O [levetiracetam, (S)-2-(2-oxopyrrolidin-1-yl)butanamide]",effect on PTZ-induced kindling (in words),"[2]; 10 mg/kg p.o., at the end of the treatment (day 11)",all mice showed tonic or clonic convulsions
same,antiepileptic effect in comparison experiment (in words),[2]; 30 mg/kg p.o.,moderately effective
same,effect on PTZ-induced kindling (in words),"[2]; 30 mg/kg p.o., dose-response experiment (Tab. 1)",intermediate reduction of the effect
same,incidence of clonic convulsion in the first 6 days,"[2]; 60 mg/kg p.o. once daily, days 1-6",≤ 20%
same,effect on PTZ-induced kindling vs vehicle treatment group (in words),"[2]; 60 mg/kg p.o., eighth to eleventh day of treatment",statistically significant difference in the proportion of mice exhibiting seizures
same,percentage of mice per group with clonic convulsions,"[2]; Table 1, 10 mg/kg p.o. once daily 60 min before PTZ 55 mg/kg i.p., Day 1",6.6%
same,percentage of mice per group with clonic convulsions,"[2]; Table 1, 10 mg/kg p.o. once daily 60 min before PTZ 55 mg/kg i.p., Day 2",6.6%
same,percentage of mice per group with clonic convulsions,"[2]; Table 1, 10 mg/kg p.o. once daily 60 min before PTZ 55 mg/kg i.p., Day 3",20.0%
same,percentage of mice per group with clonic convulsions,"[2]; Table 1, 10 mg/kg p.o. once daily 60 min before PTZ 55 mg/kg i.p., Day 4",26.6%
same,percentage of mice per group with clonic convulsions,"[2]; Table 1, 10 mg/kg p.o. once daily 60 min before PTZ 55 mg/kg i.p., Day 5",26.6%
same,percentage of mice per group with clonic convulsions,"[2]; Table 1, 10 mg/kg p.o. once daily 60 min before PTZ 55 mg/kg i.p., Day 6",53.0%
same,percentage of mice per group with clonic convulsions,"[2]; Table 1, 10 mg/kg p.o. once daily 60 min before PTZ 55 mg/kg i.p., Day 7",53.3%
same,percentage of mice per group with clonic convulsions,"[2]; Table 1, 10 mg/kg p.o. once daily 60 min before PTZ 55 mg/kg i.p., Day 8",73.3%
same,percentage of mice per group with clonic convulsions,"[2]; Table 1, 10 mg/kg p.o. once daily 60 min before PTZ 55 mg/kg i.p., Day 9",86.6%
same,percentage of mice per group with clonic convulsions,"[2]; Table 1, 10 mg/kg p.o. once daily 60 min before PTZ 55 mg/kg i.p., Day 10",86.6%
same,percentage of mice per group with clonic convulsions,"[2]; Table 1, 10 mg/kg p.o. once daily 60 min before PTZ 55 mg/kg i.p., Day 11",100%
same,percentage of mice per group with clonic convulsions,"[2]; Table 1, 30 mg/kg p.o. once daily 60 min before PTZ 55 mg/kg i.p., Day 1",0%
same,percentage of mice per group with clonic convulsions,"[2]; Table 1, 30 mg/kg p.o. once daily 60 min before PTZ 55 mg/kg i.p., Day 2",6.6%
same,percentage of mice per group with clonic convulsions,"[2]; Table 1, 30 mg/kg p.o. once daily 60 min before PTZ 55 mg/kg i.p., Day 3",13.3%
same,percentage of mice per group with clonic convulsions,"[2]; Table 1, 30 mg/kg p.o. once daily 60 min before PTZ 55 mg/kg i.p., Day 4",20.0%
same,percentage of mice per group with clonic convulsions,"[2]; Table 1, 30 mg/kg p.o. once daily 60 min before PTZ 55 mg/kg i.p., Day 5",20.0%
same,percentage of mice per group with clonic convulsions,"[2]; Table 1, 30 mg/kg p.o. once daily 60 min before PTZ 55 mg/kg i.p., Day 6",26.6%
same,percentage of mice per group with clonic convulsions,"[2]; Table 1, 30 mg/kg p.o. once daily 60 min before PTZ 55 mg/kg i.p., Day 7",33.3%
same,percentage of mice per group with clonic convulsions,"[2]; Table 1, 30 mg/kg p.o. once daily 60 min before PTZ 55 mg/kg i.p., Day 8",46.6%
same,percentage of mice per group with clonic convulsions,"[2]; Table 1, 30 mg/kg p.o. once daily 60 min before PTZ 55 mg/kg i.p., Day 9",66.6%
same,percentage of mice per group with clonic convulsions,"[2]; Table 1, 30 mg/kg p.o. once daily 60 min before PTZ 55 mg/kg i.p., Day 10",66.6%
same,percentage of mice per group with clonic convulsions,"[2]; Table 1, 30 mg/kg p.o. once daily 60 min before PTZ 55 mg/kg i.p., Day 11",73.3%
same,percentage of mice per group with clonic convulsions,"[2]; Table 1, 60 mg/kg p.o. once daily 60 min before PTZ 55 mg/kg i.p., Day 1",0%
same,percentage of mice per group with clonic convulsions,"[2]; Table 1, 60 mg/kg p.o. once daily 60 min before PTZ 55 mg/kg i.p., Day 2",0%
same,percentage of mice per group with clonic convulsions,"[2]; Table 1, 60 mg/kg p.o. once daily 60 min before PTZ 55 mg/kg i.p., Day 3",6.6%
same,percentage of mice per group with clonic convulsions,"[2]; Table 1, 60 mg/kg p.o. once daily 60 min before PTZ 55 mg/kg i.p., Day 4",20.0%
same,percentage of mice per group with clonic convulsions,"[2]; Table 1, 60 mg/kg p.o. once daily 60 min before PTZ 55 mg/kg i.p., Day 5",20.0%
same,percentage of mice per group with clonic convulsions,"[2]; Table 1, 60 mg/kg p.o. once daily 60 min before PTZ 55 mg/kg i.p., Day 6",20.0%
same,percentage of mice per group with clonic convulsions,"[2]; Table 1, 60 mg/kg p.o. once daily 60 min before PTZ 55 mg/kg i.p., Day 7",26.6%
same,percentage of mice per group with clonic convulsions,"[2]; Table 1, 60 mg/kg p.o. once daily 60 min before PTZ 55 mg/kg i.p., Day 8",26.6^# %
same,percentage of mice per group with clonic convulsions,"[2]; Table 1, 60 mg/kg p.o. once daily 60 min before PTZ 55 mg/kg i.p., Day 9",33.3^# %
same,percentage of mice per group with clonic convulsions,"[2]; Table 1, 60 mg/kg p.o. once daily 60 min before PTZ 55 mg/kg i.p., Day 10",33.3^# %
same,percentage of mice per group with clonic convulsions,"[2]; Table 1, 60 mg/kg p.o. once daily 60 min before PTZ 55 mg/kg i.p., Day 11",40%
same,percentage of mice per group with clonic convulsions,[2]; [3],0%
same,percentage of mice per group with clonic convulsions,[2]; [4],0%
same,percentage of mice per group with clonic convulsions,[2]; [5],6.6%
same,percentage of mice per group with clonic convulsions,[2]; [6],13.3%
same,percentage of mice per group with clonic convulsions,[2]; [7],20.0%
same,percentage of mice per group with clonic convulsions,[2]; [8],26.6%
same,percentage of mice per group with clonic convulsions,[2]; [9],33.3%
same,percentage of mice per group with clonic convulsions,[2]; [10],46.6%
same,percentage of mice per group with clonic convulsions,[2]; [11],66.6%
same,percentage of mice per group with clonic convulsions,[2]; [12],73.3%
same,percentage of mice per group with clonic convulsions,[2]; [13],73.3%
